# Data published in publication PMC8510344, “Bile-Acid-Appended Triazolyl Aryl Ketones: Design, Synthesis, In Vitro Anticancer Activity and Pharmacokinetics in Rats” (Molecules, 2021).
# Where “and” joins values, the source holds several entries; their conditions need not be identical. Equal values may be shown once. Read-outs that look alike come from different tables or passages of the source.
# What was measured:
# [1] = test system: 4T1 cells; assay: Annexin V/PI apoptosis assay by flow cytometry, 4T1; format: cell-based, mouse; settings: 6af at 12.84 µM, 6cf at 8.76 µM (respective IC50), 48 h
# Experimental: (§1) The extent of apoptosis induced by compounds 6af and 6cf in MCF-7 and 4T1 cells was quantified by flow cytometry according to the manufacturer’s protocol. Briefly, cells were seeded in a 6-well plate at a cell density of 1 × 10^6 cells/well. After 24 h, the media was discarded and cells were treated with fresh media containing compounds 6af and 6cf at their respective IC50 concentrations for 48 h. After treatment, cells were trypsinized, harvested in PBS and collected by centrifugation for 5 min at 2000 rpm. Cells were then resuspended in 1X binding buffer and stained with FITC-labeled Annexin V Alexa Fluor 488 (5 μL) and propidium iodide (10 μL). Cells were analyzed using flow cytometer (Beckman Coulter), and data were analyzed with CytExpert software.
# [2] = test system: 4T1 (mouse mammary carcinoma) cells; assay: MTT cytotoxicity assay, 4T1; format: cell-based; settings: for IC50: 48 h; for viability at 10 µM: 48 h exposure, read-out: % Cell Viability at 10 µM 4T1
# Experimental: (§2) The cytotoxicity activity of all the conjugates (6aa–6df) was evaluated in vitro by MTT assay against two different breast cancer cell lines 4T1 (murine) and MCF-7 (human) and HEK 293 (human) as normal cell line. DTX was used as positive control. Cells were grown in DMEM supplemented with 10% FBS and 1% antibiotic solution and incubated at 5% CO2 and 37 °C for 24 h. The stock solutions of all the conjugates were prepared in DMSO and diluted for further use. Briefly, 5 × 10^3 cells/well were seeded in 96-well cell culture plates and allowed to adhere for 24 h. Cell inhibition (%) was determined after 48 h exposure to the compounds at 1–25 μM concentration. After 48 h, MTT assay was performed and the yellow tetrazolium salt (MTT) was reduced in metabolically active cells to form insoluble purple formazan crystals, which were solubilized by the addition of DMSO. The optical density (OD) was recorded at 560 nm and 630 nm as reference wavelength. Percentage cell inhibition was determined by comparison with untreated cells.
# [3] = test system: MCF-7 cells; assay: Annexin V/PI apoptosis assay by flow cytometry, MCF-7; format: cell-based, human; settings: 6af at 2.61 µM, 6cf at 5.71 µM (respective IC50), 48 h
# Experimental: as §1
# [4] = test system: MCF-7 (human breast adenocarcinoma) cells; assay: MTT cytotoxicity assay, MCF-7; format: cell-based; settings: Homo sapiens, MCF7, 10 µM, 48 h exposure, read-out: % Cell Viability at 10 µM MCF-7
# Experimental: as §2
# [5] = MTT cytotoxicity assay, normal cell line HEK 293; format: cell-based; settings: human, HEK 293 cells, HEK 293 normal cells, 48 h exposure
# Experimental: as §2
# [6] = Pharmacokinetic study in Wistar rats, i.v. bolus; format: in vivo; settings: rat plasma, 10 mg/kg i.v. bolus
# Experimental: Wistar rats (male; 8–10 weeks, 200–240 g) were procured from Central Animal Facility, BITS Pilani (Pilani, India). Animal experiment protocol was approved by Institutional Animal Ethics Committee (IAEC/RES/24/03), BITS Pilani, Pilani, and all experiments were conducted as per CPCSEA guidelines. Rats were housed in well-ventilated cages at standard laboratory conditions with regular light/dark cycles for 12 h and fed with standard normal diet ab libitum.
# The pharmacokinetic study of 6cf was performed on Wistar rats. 6cf solution (prepared in normal saline with 5% w/v tween 80) was administered intravenously at the dose of 10 mg/kg with maximum dosing volume of 300 µL to each rat without fasting (n = 4). After i.v. dosing, blood samples were collected for each preset time point at 10, 20, 30, 50 min, 1.5, 2, 4, 6, 8, 12 and 24 h. 6cf plasma concentration–time profile was plotted and analyzed by non-compartmental model approach using Phoenix 2.1 WinNonlin (Pharsight Corporation, USA) to determine t1/2, elimination half-life; C0, drug concentration in plasma at t = 0; AUC0-t, area under curve from zero to the last time point; AUC0–∞, area under curve from zero to infinity; and MRT, mean residence time.
# A simple liquid–liquid extraction (LLE) method was used for extraction of 6cf from the rat plasma. A 200 µL aliquot of plasma sample containing 6cf was taken in 5 mL glass tube, followed by the addition of 100 µL of internal standard (I.S.) (clobetasol, 2 µg/mL) solution. Samples were vortexed for 1 min, and then 2 mL of ethyl acetate was added as extracting solvent. The samples were vortexed for 5 min and centrifuged at 5000 rpm for 15 min at 4 °C. The organic layer was collected and evaporated to dryness at 40 ± 0.5 °C. The residue was reconstituted with 250 µL of mobile phase and vortexed for 1 min. Finally, 150 µL of sample was injected into HPLC for quantification.
# A Thermo Fisher Rapid Separation (RS) UHPLC System (Ultimate 3000) equipped with a pump (LPG-3400SD), Diode Array Detector (DAD) (DAD-3000) and autosampler (ACC-3000T) with 250 µL injection loop was used for purity analysis. The UHPLC system was equilibrated for approximately 40 min before beginning the sample analysis. Column temperature was 35° throughout the analysis. 6cf and I.S. were separated on Intersil® ODS (C18) column (250 × 4.6 mm, 5µm) with a mobile phase consisting of acetonitrile:water (60:40 % v/v) run in isocratic mode at a flow rate of 1 mL/min, detection wavelength 259 nm and injection volume of 150 µL. […] Control of hardware and data handling was performed using Chromeleon software version 7.2 SR4.
# [7] = test system: Human cervix cancer cell line (HeLa); design: method as in PMID 23884119, PMID 25476168, PMID 30220830, PMID 23584541, PMID 28158265; settings: literature example of Figure 1, cited from earlier work
# [8] = test system: Human prostate cancer cell line (PC-3); design: method as in PMID 23884119, PMID 25476168, PMID 30220830, PMID 23584541, PMID 28158265; settings: literature example of Figure 1; cited from earlier work
# [9] = test system: leukemia cell line (K562); settings: cited from earlier work
# [10] = test system: leukemia cell line (Jurkat); design: method as in doi:10.1039/c3nj00513e; settings: cited from earlier work
# [11] = test system: Lymphoblastic leukemia cell line (CCRF-CEM); design: method as in PMID 23291595; settings: cited from earlier work
smiles,measurement,setting,value
"C[C@H](CCC(=O)OCc1cn(CC(=O)c2ccc(Br)cc2)nn1)C1CCC2C3C(C[C@H](O)[C@@]21C)[C@@]1(C)CC[C@@H](O)CC1C[C@H]3O (stereo partly drawn) [6af, (1-(2-(4-Bromophenyl)-2-oxoethyl)-1H-1,2,3-triazol-4-yl)methyl (4R)-4-((3R,7R,10S,12S,13R)-3,7,12-trihydroxy-10,13-dimethylhexadecahydro-1H-cyclopenta[a]phenanthren-17-yl)pentanoate]",total apoptosis in 4T1 cells,[1],19.02%
same,melting point,,159 to 160 °C
same,IC50,[2],12.8 ± 1.8 µM
same,viability at 10 µM,[2]; Mus musculus,55.9%
same,IC50,[2]; Mus musculus,< 19 µM
same,apoptosis (total) in MCF-7 cells,[3],33.89%
same,viability at 10 µM,[4],26.5%
same,"viability at 48 h, 10 µM",[5],> 86%
"C[C@H](CCC(=O)NCc1cn(CC(=O)c2ccc(Br)cc2)nn1)C1CCC2C3C(C[C@H](O)[C@@]21C)[C@@]1(C)CC[C@@H](O)CC1C[C@H]3O (stereo partly drawn) [6cf, (4R)-N-((1-(2-(4-Bromophenyl)-2-oxoethyl)-1H-1,2,3-triazol-4-yl)methyl)-4-((3R,7R,10S,12S,13R)-3,7,12-trihydroxy-10,13-dimethylhexadecahydro-1H-cyclopenta[a]phenanthren-17-yl)pentanamide]",total apoptosis in 4T1 cells,[1],19.56%
same,melting point,,144 to 145 °C
same,viability at 10 µM,[2]; Mus musculus,49.3%
same,apoptosis (total) in MCF-7 cells,[3],46.09%
same,C0,"[6]; male, Wistar, iv, conversion of 1752.69 ng/mL, read-out: initial concentration converted to molar",~2560 nM
same,AUC(0-t),"[6]; male, Wistar, iv, mean ± SEM, read-out: Area Under the Curve (0 to 12 h), AUC0–last",2000 ± 87.4 ng·h/mL
same,AUC(0-inf),"[6]; male, Wistar, iv, mean ± SEM, read-out: Area Under the Curve (0 to infinity), AUC0–∞",2690 ± 113 ng·h/mL
same,k el,"[6]; male, Wistar, iv, mean ± SEM, read-out: Elimination Rate Constant, Ke (converted)",3.61e-05 s⁻¹
same,half-life,"[6]; male, Wistar, iv, mean ± SEM, read-out: Half-Life, t1/2 (converted)",5.63 ± 0.539 h
same,C0,"[6]; male, Wistar, iv, mean ± SEM, read-out: Initial Concentration, C0",1750 ± 66.5 ng/mL
same,MRT,"[6]; male, Wistar, iv, mean ± SEM, read-out: Mean Residence Time, MRT",8.47 ± 0.96 h
same,"Area Under the First Moment Curve (0 to 12 h), AUMC0–last",[6]; mean ± SEM,8155.94 ± 311.78 ng·h/mL
same,"Area Under the First Moment Curve (0 to infinity), AUMC0–∞",[6]; mean ± SEM,22276.39 ± 2023.334 ng·h/mL
same,viability at 10 µM,[4],37.5%
same,"viability at 48 h, 10 µM",[5],> 86%
"C[C@H](CCC(=O)NCc1cn(CC(=O)c2ccc(F)cc2)nn1)C1CCC2C3CCC4C[C@H](O)CC[C@]4(C)C3C[C@H](O)[C@@]21C (stereo partly drawn) [6dd, (4R)-4-((3R,10S,12S,13R)-3,12-Dihydroxy-10,13-dimethylhexadecahydro-1H-cyclopenta[a]phenanthren-17-yl)-N-((1-(2-(4-fluorophenyl)-2-oxoethyl)-1H-1,2,3-triazol-4-yl)methyl)pentanamide]",melting point,,126 to 127 °C
same,viability at 10 µM,[2]; Mus musculus,89.9%
same,viability at 10 µM,[4],73.8%
same,"viability at 48 h, 10 µM",[5],81.6%
"C[C@H](CCC(=O)NCc1cn(CC(=O)c2ccc(Cl)cc2)nn1)C1CCC2C3CCC4C[C@H](O)CC[C@]4(C)C3C[C@H](O)[C@@]21C (stereo partly drawn) [6de, (4R)-N-((1-(2-(4-Chlorophenyl)-2-oxoethyl)-1H-1,2,3-triazol-4-yl)methyl)-4-((3R,10S,12S,13R)-3,12-dihydroxy-10,13-dimethylhexadecahydro-1H-cyclopenta[a]phenanthren-17-yl)pentanamide]",melting point,,100 to 101 °C
same,viability at 10 µM,[2]; Mus musculus,62.9%
same,viability at 10 µM,[4],86.8%
same,"viability at 48 h, 10 µM",[5],90.5%
"C[C@H](CCC(=O)NCc1cn(CC(=O)c2ccc(Br)cc2)nn1)C1CCC2C3CCC4C[C@H](O)CC[C@]4(C)C3C[C@H](O)[C@@]21C (stereo partly drawn) [6df, (4R)-N-((1-(2-(4-Bromophenyl)-2-oxoethyl)-1H-1,2,3-triazol-4-yl)methyl)-4-((3R,10S,12S,13R)-3,12-dihydroxy-10,13-dimethylhexadecahydro-1H-cyclopenta[a]phenanthren-17-yl)pentanamide]",melting point,,135 to 136 °C
same,viability at 10 µM,[2]; Mus musculus,48.4%
same,viability at 10 µM,[4],86.5%
same,"viability at 48 h, 10 µM",[5],93.5%
CC(C)CCCC(C)C1CCC2C3CCC4CC(=O)C(n5cc(-c6ccccn6)nn5)CC4(C)C3CCC12C (stereo not shown) [III],% Growth Inhibition at 30 μM HeLa,[7],43.5%
Cc1cccc(-c2cn(CC3CC4C5CC=C6CC(O)CCC6(C)C5CCC4(C)C3O)nn2)c1 (stereo not shown) [II],% Growth Inhibition at 30 μM HeLa,[7],96.9%
COc1ccc2c(c1)CCC1C2CCC2(C)C(O)C(n3cc(-c4ccc(C(C)(C)C)cc4)nn3)CC12 (stereo not shown) [IV],IC50,[7],5.08 µM
CC(=O)c1ccc(OCc2cn(CC(=O)C3CCC4C5CC=C6CC(O)CCC6(C)C5CCC34C)nn2)cc1 (stereo not shown) [I],IC50,[8],0.03 µM
COC(=O)CCC(C)C1CCC2C3C(O)CC4CC(n5cc(CCCC#Cc6nc7c(N)ncnc7n6C6CC(O)C(CO)O6)nn5)CCC4(C)C3CCC12C (stereo not shown) [VII],IC50,[9],8.51 µM and 8.5 µM
same,IC50,[10],10.5 ± 2.64 µM
CC(CCn1cc(CCCCC#Cc2nc3c(N)ncnc3n2C2CC(O)C(CO)O2)nn1)C1CCC2C3C(O)CC4CC(O)CCC4(C)C3CCC12C (stereo not shown) [VI],IC50,[9],16.2 ± 2.2 µM
CC(CCC(=O)OCc1cn(Cc2cccc(Cn3cc(COC(=O)CCC(C)C4CCC5C6C(O)CC7CC(O)CCC7(C)C6CC(O)C45C)nn3)n2)nn1)C1CCC2C3C(O)CC4CC(O)CCC4(C)C3CC(O)C12C (stereo not shown) [V],IC50,[11],3.98 µM
